The target in this test is T1, human capsaicin receptor (Homo sapiens, UniProt Q8NER1).
T1 construct: expressed in transfected cells; host or cells: HEK293, stably transfected with pBK-CMV construct
The experiment in a line: Calcium mobilization assay, determination of antagonist activity. The format is cell-based. Particulars: capsaicin at EC50; cells expressing human capsaicin receptor; Example 6. The method, boiled down: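 IC50 is the antagonist level giving a 50% drop in the capsaicin (EC50) calcium signal, read by FLIPR in Fluo-3 AM-loaded stable HEK293 lines bearing full-length human receptor. Compounds at 1-5 µM final were preincubated 0.5-6 h, room temperature, dark, in KRH pH 7.4.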
In general terms: Calcium assays in cells follow changes in intracellular calcium, usually with a dye or a luminescent sensor.

For orientation: IC50 means the midpoint of a concentration-inhibition curve.

T1 sequence (Q8NER1 whole entry): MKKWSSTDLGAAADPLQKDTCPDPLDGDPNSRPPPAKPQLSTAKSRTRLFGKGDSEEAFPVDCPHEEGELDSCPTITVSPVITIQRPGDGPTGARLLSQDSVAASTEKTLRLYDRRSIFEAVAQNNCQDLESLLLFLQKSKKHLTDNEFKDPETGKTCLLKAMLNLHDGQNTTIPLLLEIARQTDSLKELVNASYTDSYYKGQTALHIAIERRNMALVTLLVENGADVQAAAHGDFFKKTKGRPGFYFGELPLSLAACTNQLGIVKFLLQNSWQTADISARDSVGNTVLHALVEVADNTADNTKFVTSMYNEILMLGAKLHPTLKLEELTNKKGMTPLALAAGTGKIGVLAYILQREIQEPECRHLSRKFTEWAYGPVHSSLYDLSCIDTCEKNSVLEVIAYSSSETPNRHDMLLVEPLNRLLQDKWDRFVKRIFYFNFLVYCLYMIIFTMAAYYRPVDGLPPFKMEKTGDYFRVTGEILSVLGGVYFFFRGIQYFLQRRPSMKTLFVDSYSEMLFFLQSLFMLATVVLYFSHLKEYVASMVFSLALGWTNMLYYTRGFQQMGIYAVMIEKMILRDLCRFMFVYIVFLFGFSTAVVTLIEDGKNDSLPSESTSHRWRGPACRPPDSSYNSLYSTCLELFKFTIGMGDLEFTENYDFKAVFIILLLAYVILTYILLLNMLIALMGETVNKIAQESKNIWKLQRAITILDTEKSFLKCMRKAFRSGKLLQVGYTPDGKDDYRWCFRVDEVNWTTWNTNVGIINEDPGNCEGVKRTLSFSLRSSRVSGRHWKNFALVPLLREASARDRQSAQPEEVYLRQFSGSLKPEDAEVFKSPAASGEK

As to `COCCNC(=O)c1cnc(N2CCN(c3cc(-c4ccc(F)cc4)nc(N4CCCC4C)n3)CC2)c(C)c1` (stereo not drawn) [Example 109, 6-{4-[6-(4-fluorophenyl)-2-(2-methylpyrrolidin-1-yl)pyrimidin-4-yl]piperazin-1-yl}-N-(2-methoxyethyl)-5-methylnicotinamide], the IC50 was ≤ 1 µM.
As for `COCCCNC(=O)c1cnc(N2CCN(c3cc(-c4ccc(F)cc4)nc(N4CCCC4C)n3)CC2)c(C)c1` (stereo not drawn) [Example 110, 6-{4-[6-(4-fluorophenyl)-2-(2-methylpyrrolidin-1-yl)pyrimidin-4-yl]piperazin-1-yl}-N-(3-methoxypropyl)-5-methylnicotinamide], the IC50 is ≤ 1 µM.
For `Cc1cc(C(=O)NCC2CCCO2)cnc1N1CCN(c2cc(-c3ccc(F)cc3)nc(N3CCCC3C)n2)CC1` (stereo not drawn) [Example 111, 6-{4-[6-(4-fluorophenyl)-2-(2-methylpyrrolidin-1-yl)pyrimidin-4-yl]piperazin-1-yl}-5-methyl-N-(tetrahydrofuran-2-ylmethyl)nicotinamide], the IC50 is ≤ 1 µM.
For `CCOCCCNC(=O)c1cnc(N2CCN(c3cc(-c4ccc(F)cc4)nc(N4CCCC4C)n3)CC2)c(C)c1` (stereo not drawn) [Example 112, N-(3-ethoxypropyl)-6-{4-[6-(4-fluorophenyl)-2-(2-methylpyrrolidin-1-yl)pyrimidin-4-yl]piperazin-1-yl}-5-methylnicotinamide], the IC50 was ≤ 1 µM.
To `Cc1cc(C(=O)NCc2ccccc2)cnc1N1CCN(c2cc(-c3ccc(F)cc3)nc(N3CCCC3C)n2)CC1` (stereo not drawn) [Example 113, N-benzyl-6-{4-[6-(4-fluorophenyl)-2-(2-methylpyrrolidin-1-yl)pyrimidin-4-yl]piperazin-1-yl}-5-methylnicotinamide] belongs ≤ 1 µM; to `Cc1cc(C(=O)NCc2ccc(F)cc2)cnc1N1CCN(c2cc(-c3ccc(F)cc3)nc(N3CCCC3C)n2)CC1` (stereo not drawn) [Example 114, N-(4-fluorobenzyl)-6-{4-[6-(4-fluorophenyl)-2-(2-methylpyrrolidin-1-yl)pyrimidin-4-yl]piperazin-1-yl}-5-methylnicotinamide], ≤ 1 µM.
In the case of `COc1ccc(CNC(=O)c2cnc(N3CCN(c4cc(-c5ccc(F)cc5)nc(N5CCCC5C)n4)CC3)c(C)c2)cc1` (stereo not drawn) [Example 115, 6-{4-[6-(4-fluorophenyl)-2-(2-methylpyrrolidin-1-yl)pyrimidin-4-yl]piperazin-1-yl}-N-(4-methoxybenzyl)-5-methylnicotinamide], the IC50 was ≤ 1 µM.
Regarding `Cc1cc(C(=O)NCCCN(C)C)cnc1N1CCN(c2cc(-c3ccc(F)cc3)nc(N3CCCC3C)n2)CC1` (stereo not drawn) [Example 116, N-[3-(dimethylamino)propyl]-6-{4-[6-(4-fluorophenyl)-2-(2-methylpyrrolidin-1-yl)pyrimidin-4-yl]piperazin-1-yl}-5-methylnicotinamide], the IC50 was ≤ 1 µM.
Take `COCC(C)NC(=O)c1cnc(N2CCN(c3cc(-c4ccc(F)cc4)nc(N4CCCC4C)n3)CC2)c(C)c1` (stereo not drawn) [Example 117, 6-{4-[6-(4-fluorophenyl)-2-(2-methylpyrrolidin-1-yl)pyrimidin-4-yl]piperazin-1-yl}-N-(2-methoxy-1-methylethyl)-5-methylnicotinamide]: the IC50 was ≤ 1 µM.
Take `Cc1cc(C(=O)NCc2cccs2)cnc1N1CCN(c2cc(-c3ccc(F)cc3)nc(N3CCCC3C)n2)CC1` (stereo not drawn) [Example 118, 6-{4-[6-(4-fluorophenyl)-2-(2-methylpyrrolidin-1-yl)pyrimidin-4-yl]piperazin-1-yl}-5-methyl-N-(2-thienylmethyl) nicotinamide]: the IC50 was ≤ 1 µM.
Take `CCOCCNC(=O)c1cnc(N2CCN(c3cc(-c4ccc(F)cc4)nc(N4CCCC4C)n3)CC2)c(C)c1` (stereo not drawn) [Example 119, N-(2-ethoxyethyl)-6-{4-[6-(4-fluorophenyl)-2-(2-methylpyrrolidin-1-yl)pyrimidin-4-yl]piperazin-1-yl}-5-methylnicotinamide]: the IC50 is ≤ 1 µM.
`Cc1cc(C(=O)NCC(F)(F)F)cnc1N1CCN(c2cc(-c3ccc(F)cc3)nc(N3CCCC3C)n2)CC1` (stereo not drawn) [Example 120, 6-{4-[6-(4-fluorophenyl)-2-(2-methylpyrrolidin-1-yl)pyrimidin-4-yl]piperazin-1-yl}-5-methyl-N-(2,2,2-trifluoroethyl)nicotinamide]: the IC50 is ≤ 1 µM.
With `Cc1cc(C(=O)N(C)Cc2ccccc2)cnc1N1CCN(c2cc(-c3ccc(F)cc3)nc(N3CCCC3C)n2)CC1` (stereo not drawn) [Example 121, N-benzyl-6-{4-[6-(4-fluorophenyl)-2-(2-methylpyrrolidin-1-yl)pyrimidin-4-yl]piperazin-1-yl}-N,5-dimethylnicotinamide] the figure was ≤ 1 µM.
To `Cc1cc(C(=O)N2CCCC2)cnc1N1CCN(c2cc(-c3ccc(F)cc3)nc(N3CCCC3C)n2)CC1` (stereo not drawn) [Example 122, 4-(4-fluorophenyl)-2-(2-methylpyrrolidin-1-yl)-6-{4-[3-methyl-5-(pyrrolidin-1-ylcarbonyl)pyridin-2-yl]piperazin-1-yl}pyrimidine] belongs ≤ 1 µM; to `Cc1cc(C(=O)N2CCCCC2)cnc1N1CCN(c2cc(-c3ccc(F)cc3)nc(N3CCCC3C)n2)CC1` (stereo not drawn) [Example 123, 4-(4-fluorophenyl)-6-{4-[3-methyl-5-(piperidin-1-ylcarbonyl)pyridin-2-yl]piperazin-1-yl}-2-(2-methylpyrrolidin-1-yl)pyrimidine], ≤ 1 µM; to `Cc1cc(C(=O)N2CCOCC2)cnc1N1CCN(c2cc(-c3ccc(F)cc3)nc(N3CCCC3C)n2)CC1` (stereo not drawn) [Example 124, 4-[(6-{4-[6-(4-fluorophenyl)-2-(2-methylpyrrolidin-1-yl)pyrimidin-4-yl]piperazin-1-yl}-5-methylpyridin-3-yl)carbonyl]morpholine], ≤ 1 µM.
`Cc1cc(C(=O)N2CCC(C)CC2)cnc1N1CCN(c2cc(-c3ccc(F)cc3)nc(N3CCCC3C)n2)CC1` (stereo not drawn) [Example 125, 4-(4-fluorophenyl)-6-(4-{3-methyl-5-[(4-methylpiperidin-1-yl)carbonyl]pyridin-2-yl}piperazin-1-yl)-2-(2-methylpyrrolidin-1-yl)pyrimidine]: the IC50 was ≤ 1 µM.
`Cc1cc(C(=O)N2CCCCCC2)cnc1N1CCN(c2cc(-c3ccc(F)cc3)nc(N3CCCC3C)n2)CC1` (stereo not drawn) [Example 126, l-[(6-{4-[6-(4-fluorophenyl)-2-(2-methylpyrrolidin-1-yl)pyrimidin-4-yl]piperazin-1-yl}-5-methylpyridin-3-yl)carbonyl]azepane]: the IC50 was ≤ 1 µM.
Turning to `Cc1cc(C(=O)N2CCSCC2)cnc1N1CCN(c2cc(-c3ccc(F)cc3)nc(N3CCCC3C)n2)CC1` (stereo not drawn) [Example 127, 4-[(6-{4-[6-(4-fluorophenyl)-2-(2-methylpyrrolidin-1-yl)pyrimidin-4-yl]piperazin-1-yl}-5-methylpyridin-3-yl)carbonyl] thiomorpholine], the IC50 was ≤ 1 µM.
To `Cc1cc(C(=O)N2CCCCC2C)cnc1N1CCN(c2cc(-c3ccc(F)cc3)nc(N3CCCC3C)n2)CC1` (stereo not drawn) [Example 128, 4-(4-fluorophenyl)-6-(4-{3-methyl-5-[(2-methylpiperidin-1-yl)carbonyl]pyridin-2-yl}piperazin-1-yl)-2-(2-methylpyrrolidin-1-yl)pyrimidine] belongs ≤ 1 µM.
Consider `Cc1cc(C(=O)N(C)C2CCCCC2)cnc1N1CCN(c2cc(-c3ccc(F)cc3)nc(N3CCCC3C)n2)CC1` (stereo not drawn) [Example 129, N-cyclohexyl-6-{4-[6-(4-fluorophenyl)-2-(2-methylpyrrolidin-1-yl)pyrimidin-4-yl]piperazin-1-yl}-N,5-dimethylnicotinamide], for which the IC50 is ≤ 1 µM.

These data come from patent US8334382B2, “Substituted biaryl piperazinyl-pyridine analogues” (Neurogen Corporation, priority 2004, dated 2012).
